These are literature values, as cited in US20140178456A1, “METHODS AND COMPOSITIONS FOR TREATING TYPE 2 DIABETES AND RELATED CONDITIONS” (priority 2012, published 2014).

Structures are written as SMILES. Where a name gives a salt, the structure may show the parent alone.

Regarding `CCc1ccc(CCOc2ccc(CC3SC(=O)NC3=O)cc2)nc1` (centres unmarked) [pioglitazone], the “peak plasma concentration of pioglitazone and its active metabolites” value (oral administration of 30 mg pioglitazone) is “about 146 μg per liter”.

`CN(CCOc1ccc(CC2SC(=O)NC2=O)cc1)c1ccccn1` (centres unmarked) [rosiglitazone maleate]: the peak plasma concentration entry (oral administration of 8 mg rosiglitazone maleate) is on record as “about 46114 per liter”.
